In the supplement of paper PMC10307832:

Assays:
Assay in all cases: relative viability (nuclei count vs DMSO), 5 days (fraction); higher = more cells survive
Axitinib + Tozasertib = compound: CNC(=O)c1ccccc1Sc1ccc2c(/C=C/c3ccccn3)n[nH]c2c1 [Axitinib] + Cc1cc(Nc2cc(N3CCN(C)CC3)nc(Sc3ccc(NC(=O)C4CC4)cc3)n2)n[nH]1 [Tozasertib] (partner 0.1 µM)
Summary of the method: (§1)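 Each reported value is a median over duplicate plates. It expresses relative viability: treated-well nuclei count divided by vehicle-well nuclei count. Lung cancer cell lines in 1536-well plates were dosed by pin tool a day after seeding, alone with one drug or with a fixed anchor-drug dose plus five library-drug doses (not always all listed) in √10 steps, and nuclei were counted after 5 days.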

[1] = compound: CC1=CC=C(C=C1)C(=O)CN2C3=C(CCCC3)SC2=N [Pifithrin_alpha] + Cc1nc(NC(=O)N2CCC[C@H]2C(N)=O)sc1-c1ccnc(C(C)(C)C(F)(F)F)c1 [Alpelisib] (partner 2 µM)
Summary of the method: as §1

Bemcentinib + Navitoclax = compound: Nc1nc(Nc2ccc3c(c2)CC[C@@H](N2CCCC2)CC3)nn1-c1cc2c(nn1)-c1ccccc1CCC2 [Bemcentinib] + CC1(C)CCC(c2ccc(Cl)cc2)=C(CN2CCN(c3ccc(C(=O)NS(=O)(=O)c4ccc(N[C@H](CCN5CCOCC5)CSc5ccccc5)c(S(=O)(=O)C(F)(F)F)c4)cc3)CC2)C1 [Navitoclax] (partner 0.5 µM)
Summary of the method: as §1

Bemcentinib + AZD7762 = compound: Nc1nc(Nc2ccc3c(c2)CC[C@@H](N2CCCC2)CC3)nn1-c1cc2c(nn1)-c1ccccc1CCC2 [Bemcentinib] + NC(=O)Nc1cc(-c2cccc(F)c2)sc1C(=O)N[C@H]1CCCNC1 [AZD7762] (partner 0.2 µM)
Summary of the method: as §1

Row | Cell Line | relative viability (Axitinib + Tozasertib; first compound 0.005 µM) | relative viability (Axitinib + Tozasertib; first compound 0.01581 µM) | relative viability (Axitinib + Tozasertib; first compound 0.05 µM) | relative viability (Axitinib + Tozasertib; first compound 0.1581 µM) | relative viability (Axitinib + Tozasertib; first compound 0.5 µM) | relative viability ([1]; first compound 1 µM) | relative viability ([1]; first compound 3.162 µM) | relative viability ([1]; first compound 10 µM) | relative viability ([1]; first compound 100 µM) | relative viability (Bemcentinib + Navitoclax; first compound 0.04 µM) | relative viability (Bemcentinib + Navitoclax; first compound 0.1265 µM) | relative viability (Bemcentinib + Navitoclax; first compound 0.4 µM) | relative viability (Bemcentinib + Navitoclax; first compound 1.265 µM) | relative viability (Bemcentinib + Navitoclax; first compound 4 µM) | relative viability (Bemcentinib + AZD7762; first compound 0.04 µM) | relative viability (Bemcentinib + AZD7762; first compound 0.1265 µM) | relative viability (Bemcentinib + AZD7762; first compound 0.4 µM) | relative viability (Bemcentinib + AZD7762; first compound 1.265 µM) | relative viability (Bemcentinib + AZD7762; first compound 4 µM) | relative viability ([1]; first compound 31.62 µM)
1 | NCI-H460 | 0.394 | 0.515 | 0.525 | 0.413 | 0.624 | 0.529 | 0.57 | 0.384 | 0.305 | 0.994 | 1.47 | 1.45 | 1.23 | 1.34 | 0.678 | 0.694 | 0.668 | 0.581 | 0.407 | 
2 | NCI-H2170 | 0.72 | 0.63 | 0.768 | 0.774 | 0.838 | 0.799 | 0.821 | 0.756 | 0.744 | 0.701 | 0.636 | 0.627 | 0.675 | 0.638 | 0.839 | 1.07 | 0.902 | 0.93 | 0.925 | 0.537
3 | LC-2-ad | 0.425 | 0.479 | 0.396 | 0.425 | 0.53 | 0.898 | 0.799 | 0.791 | 0.682 | 0.415 | 0.547 | 0.609 | 0.536 | 0.509 | 0.807 | 0.838 | 1.01 | 0.831 | 0.84 | 0.56
4 | HCC-78 | 0.6 | 0.493 | 0.493 | 0.477 | 0.446 | 0.295 | 0.337 | 0.352 | 0.296 | 0.657 | 0.792 | 0.859 | 0.943 | 0.836 | 0.633 | 0.717 | 0.556 | 0.672 | 0.614 | 
5 | NCI-H322M | 0.453 | 0.435 | 0.432 | 0.437 | 0.527 | 0.777 | 0.651 | 0.802 | 0.87 | 1.11 | 1.26 | 1.23 | 1.35 | 1.37 | 0.545 | 0.564 | 0.593 | 0.681 | 0.617 | 0.581
6 | NCI-H1651 | 0.853 | 0.701 | 0.73 | 0.876 | 0.877 | 0.884 | 0.933 | 0.908 | 0.989 | 0.966 | 1.16 | 1.35 | 1.14 | 1.24 | 0.506 | 0.504 | 0.491 | 0.536 | 0.455 | 0.685
7 | NCI-H1437 | 0.403 | 0.465 | 0.406 | 0.459 | 0.511 | 1.12 | 1.01 | 0.933 | 0.989 | 1.09 | 1.16 | 1.23 | 1.13 | 1.15 | 1.09 | 1.12 | 1.13 | 1.15 | 1.09 | 0.749
8 | NCI-H1355 | 0.679 | 0.587 | 0.544 | 0.54 | 0.617 | 0.732 | 0.587 | 0.559 | 0.591 | 0.947 | 0.943 | 1.08 | 0.941 | 0.976 | 0.742 | 0.742 | 0.78 | 0.834 | 0.576 | 0.489
9 | NCI-H1755 | 0.608 | 0.541 | 0.605 | 0.632 | 0.617 | 0.99 | 0.93 | 0.942 | 1.02 | 1.05 | 1.04 | 1.03 | 1.11 | 1.08 | 0.47 | 0.704 | 0.439 | 0.434 | 0.469 | 0.75
10 | NCI-H2126 | 0.919 | 0.859 | 0.833 | 0.886 | 1 | 0.714 | 0.714 | 0.685 | 0.655 | 0.835 | 0.929 | 0.892 | 0.869 | 0.833 | 1.05 | 1.01 | 0.999 | 1.09 | 1.09 | 0.623
11 | NCI-H1793 | 0.311 | 0.311 | 0.46 | 0.346 | 0.351 | 0.752 | 0.68 | 0.839 | 0.538 | 0.438 | 0.44 | 0.425 | 0.545 | 0.427 | 0.617 | 0.498 | 0.407 | 0.19 | 0.23 | 0.73
12 | HOP-62 | 0.38 | 0.414 | 0.343 | 0.44 | 0.577 | 1.18 | 1.1 | 0.848 | 0.931 | 1.04 | 0.97 | 1.16 | 0.995 | 1.13 | 0.531 | 0.505 | 0.599 | 0.527 | 0.511 | 0.62
13 | NCI-H1395 | 0.739 | 0.883 | 0.725 | 0.682 | 0.764 |  | 1.06 | 1.13 | 0.958 | 1.11 | 1.35 | 1.05 | 1.23 | 1.19 |  | 0.404 | 0.425 | 0.406 | 0.366 | 0.55
14 | NCI-H2347 | 0.589 | 0.524 | 0.609 | 0.498 | 0.675 | 0.952 | 0.993 | 0.991 | 1.1 | 0.741 | 0.862 | 0.864 | 0.918 | 0.966 | 0.684 | 0.792 | 0.728 | 0.67 | 0.652 | 0.682
15 | HCC-15 | 0.461 | 0.564 | 0.435 | 0.49 | 0.605 | 0.948 | 0.902 | 0.833 | 0.839 | 0.713 | 0.799 | 0.776 | 0.726 | 0.721 | 1.22 | 1.4 | 1.19 | 1.26 | 1.38 | 0.659
16 | HCC-44 | 1.07 | 1.14 | 0.702 | 1.02 | 1.19 | 0.681 | 0.699 | 0.715 | 0.591 | 1.09 | 1.13 | 1.01 | 1.12 | 1.02 | 1.07 | 1.05 | 1.01 | 1.08 | 1.04 | 0.453
17 | PC-14 | 0.6 |  | 0.553 | 0.558 | 0.758 | 0.952 | 0.953 | 0.975 | 0.848 | 1.07 | 1.12 | 1.16 | 1.05 | 0.997 | 0.262 | 0.419 | 0.328 | 0.334 | 0.292 | 0.771
18 | NCI-H2085 | 0.652 | 0.771 | 0.807 | 0.827 | 0.913 | 0.907 | 0.972 | 0.849 | 0.808 | 1.07 | 1.07 | 1.1 | 1.18 | 1.1 | 0.956 | 1.03 | 0.863 | 0.767 | 0.748 | 0.706
19 | HCC-827 | 0.443 | 0.417 | 0.424 | 0.466 | 0.449 | 0.878 | 1.03 | 0.919 | 0.823 | 1.03 | 1.04 | 1.07 | 0.957 | 1.02 | 0.19 | 0.163 | 0.186 | 0.198 | 0.161 | 0.626
20 | H3255 | 0.721 | 0.642 | 0.589 | 0.541 | 1.2 | 0.587 | 0.739 | 0.692 | 0.593 | 0.397 | 0.581 | 0.67 | 0.325 | 0.506 | 0.814 | 0.887 | 0.874 | 0.773 | 0.839 | 0.403
21 | LOU-NH91 | 0.682 | 0.54 | 0.746 | 0.694 | 0.827 | 0.63 | 0.637 | 0.635 | 0.583 | 0.639 | 0.728 | 0.625 | 0.674 | 0.722 | 0.423 | 0.77 | 0.791 | 0.806 | 0.799 | 0.616
22 | LK-2 | 0.176 | 0.161 | 0.198 | 0.162 | 0.174 | 1.06 | 1.03 | 1.02 | 1.56 | 0.755 | 0.903 | 0.994 | 0.904 | 0.904 | 0.281 | 0.42 | 0.289 | 0.508 | 0.48 | 
23 | EPLC-272H | 0.247 | 0.223 | 0.204 | 0.23 | 0.242 |  | 0.965 | 0.914 | 1.02 |  | 1.04 | 1.19 | 1.33 | 1.43 | 0.236 | 0.162 | 0.186 | 0.168 | 0.197 | 0.934
24 | NCI-H441 | 0.746 | 0.585 | 0.658 | 0.789 | 0.796 | 0.942 | 0.859 | 0.673 | 0.85 | 0.504 | 0.752 | 0.637 | 0.59 | 0.598 | 1.33 | 1.29 | 1.1 | 1.41 | 1.29 | 0.708
25 | NCI-H23 | 0.421 | 0.431 | 0.442 | 0.44 | 0.8 | 0.586 | 0.572 | 0.634 | 0.592 | 0.779 | 0.869 | 1.08 | 0.813 | 0.778 | 0.282 | 0.245 | 0.208 | 0.201 | 0.212 | 0.466
26 | NCI-H647 | 0.383 | 0.354 | 0.264 | 0.566 | 0.516 | 1.07 | 1.06 | 0.992 | 0.736 | 1.14 | 1.36 | 1.15 | 1.03 | 1.09 | 0.346 | 0.539 | 0.498 | 0.511 | 0.31 | 
27 | LXF-289 | 0.253 | 0.175 | 0.219 | 0.253 | 0.317 | 1.09 | 1.01 | 1.08 | 1.03 | 0.955 | 0.914 | 0.979 | 1 | 0.961 | 1.16 | 1.22 | 1.09 | 1.19 | 1.2 | 0.921
28 | NCI-H596 | 1.05 | 0.938 | 0.877 | 0.893 | 0.935 | 0.373 | 0.452 | 0.492 | 0.443 | 0.955 | 0.994 | 1.11 | 1.04 | 1.14 | 1.09 | 1.13 | 1.2 | 0.941 | 1.12 | 0.532
